Laboratory results taken from patent publication US20220048884A1, “NRF2 ACTIVATOR” (BIOGEN MA INC., priority 2017, published 2022).

Tests used:
NRF2 = experiment: PathHunter Nuclear Translocation assay (DiscoverX), agonist format; type: cell-based; conditions: 6 hours incubation, 10 concentrations, 30 μM top concentration
Excerpt: Vehicle concentration was 1%.
Microplates were read following signal generation with a PerkinElmer Envision™ instrument for chemiluminescent signal detection.

Nrf2 target genes [1] = experiment: Gene expression (RT-PCR) in cultured human astrocytes; type: cell-based; conditions: 20 hours, increasing concentrations
Method: (§1) Human astrocytes from ScienCell (cat #1820) were grown in astrocyte medium per supplier's instructions. Cells cultured for no more than two passages were plated in 96-well plates at 40,000 cells per well for gene transcription experiments and 20,000 cell per well for glutathione and cytoprotection assays.
Primary cultures of human spinal cord astrocytes were treated with compound for 20 hours. The cells were then rinsed in PBS, lysed, and processed for RNA using Ambion Tagman™ Cells-to-CT kit. The resulting cDNA was stored at −20° C. until analysis by real-time polymerase chain reaction (RT-PCR). The cDNA mixture from Cells-to-CT was diluted 5× before loading into PCR. This yields results similar to using 6 ng of purified cDNA. RT-PCR was performed on Life Technologies QuantStudio platform using OpenArray technique according to manufacturer's protocol using the following Taqman primers: […]
The comparative CT method was used to calculate fold changes using ThermoFisher Cloud software for PCR analysis. Samples were compared to vehicle control.

human astrocytes [2] = experiment: Glutathione assay in human astrocytes (GSH-Glo); type: cell-based; conditions: 20-hr exposure
Method: as §1
Intracellular glutathione was measured after a 20-hr exposure to test compounds by a two-step process. First, cells were lysed and luciferin quantitatively generated from substrate, catalyzed by glutathione-S-transferase in the presence of analyte glutathione. Then luciferin was assayed using stabilized luciferase to produce a luminescent signal proportional to the concentration of glutathione (Promega GSH-Glo, cat #V6912).

human astrocytes [3] = experiment: Cytoprotection of astrocytes against sodium arsenite; type: cell-based; conditions: compound 20 hrs before 25 μM sodium arsenite, then 22 hrs
Method: as §1
Astrocytes were treated for 20 hrs as above, then the medium was removed and replaced with serum- and supplement-free growth medium with and without 25 μM sodium arsenite. After 22 hrs., cells were washed with PBS, fixed with 4% paraformaldehyde/4% sucrose in PBS, stained with 4′,6-Diamidino-2-phenylindole dihydrochloride (DAPI) and counted by quantitative fluorescence microscopy.

Nrf2 target genes [4] = experiment: Nrf2 target gene expression (qRT-PCR) in tissues of mice after oral dosing; type: in vivo, C57BL/6 mice; conditions: wild-type mice, 10 and 50 mg/kg single oral dose, 2 hours after dosing
Excerpt: RNA was extracted in chloroform and the aqueous phase was mixed with an equal volume of 70% ethanol. Extracted RNA was applied to RNeasy 96 plates and purified by the spin method according to the manufacturer's protocol (RNeasy 96 Universal Tissue Protocol, QIAgen, Hilden Germany).

| EC50 (NRF2) [nM] | SMILES | transcription of GCLC (Nrf2 target genes [1]) | transcription of HMOX1 (Nrf2 target genes [1]) | transcription of NQO1 (Nrf2 target genes [1]) | transcription of OSGIN1 (Nrf2 target genes [1]) | intracellular glutathione (human astrocytes [2]) | protection from oxidative stress-induced cell death (human astrocytes [3]) | expression of Osgin1 in brain (Nrf2 target genes [4]) |
| --- | --- | --- | --- | --- | --- | --- | --- | --- |
| < 100 | CCn1nnc2c(C)c([C@H](c3ccc4c(c3)CN(C(=O)c3ccc(C)c(C)c3)CC4)[C@H](C)C(=O)ON)ccc21 [Example 133, amino (2S,3S)-3-[2-(3,4-dimethylbenzoyl)-3,4-dihydro-1H-isoquinolin-7-yl]-3-(1-ethyl-4-methyl-benzotriazol-5-yl)-2-methyl-propanoate] | – | – | – | – | – | – | – |
| – | CCn1nnc2c(C)c([C@@H](CC(=O)O)c3ccc4c(c3)CN(C(=O)c3c(C)c(C)cc(C)c3C)CC4)ccc21 [Example 47-Ent1, (S)-3-(1-ethyl-4-methyl-1H-benzo[d][1,2,3]triazol-5-yl)-3-(2-(2,3,5,6-tetramethylbenzoyl)-1,2,3,4-tetrahydroisoquinolin-7-yl)propanoic acid] | induces transcription | induces transcription | induces transcription | induces transcription | increases intracellular glutathione | protects cells from oxidative stress-induced cell death | increases the expression |
